From article PMC8713164, “Development of a 1,2,4-Triazole-Based Lead Tankyrase Inhibitor: Part II” (Journal of Medicinal Chemistry, 2021)
In brackets after ≈: the same amount, converted by molar mass. Like-named read-outs stand apart in the source and are kept apart here.

Key:
TNKS2 = molecular target: T1, TNKS2 (Homo sapiens, UniProt Q9H2K2); experiment: TNKS2 biochemical assay (unreacted NAD+ fluorescence); details: TNKS2 5 nM, 500 nM NAD+, 20 h; quadruplicates; 95% confidence intervals in parentheses; 24: averages of multiple independent measurements; read-out: IC50 TNKS2
T1 construct: TNKS2 (residues 873–1162); made in house
T1 sequence (Q9H2K2 873-1162): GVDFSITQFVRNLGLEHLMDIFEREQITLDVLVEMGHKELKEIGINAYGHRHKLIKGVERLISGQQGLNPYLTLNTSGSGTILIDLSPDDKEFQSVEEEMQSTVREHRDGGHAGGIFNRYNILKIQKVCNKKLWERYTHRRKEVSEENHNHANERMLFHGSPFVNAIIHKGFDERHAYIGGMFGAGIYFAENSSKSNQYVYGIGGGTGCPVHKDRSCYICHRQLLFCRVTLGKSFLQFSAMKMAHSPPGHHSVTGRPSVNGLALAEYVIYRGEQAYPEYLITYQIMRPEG
Procedure: New compounds were prepared in half-log dilution series, and the reactions were carried out in quadruplicates with protein and compound controls to exclude the effect of compound autofluorescence. All reactions were performed at ambient temperature. TNKS1 (20 nM) or TNKS2 (5 nM) was incubated for 20 h in assay buffer (50 mM Bis-Tris propane (BTP), pH 7.0, 0.5 mM Tris(2-carboxyethyl)phosphine (TCEP), 0.01% Triton X-100) with compound and 10 μM or 500 nM NAD^+, respectively.

[1] = mouse peroral pharmacokinetic analysis; type: in vivo; details: mouse PO 5 mg/kg; for AUC(0-inf) at 24 h / AUC(0-t) at 24 h / Cmax at 24 h / Tmax at 24 h / half-life at 24 h / MRT inf at 24 h: IRC, in vivo; for MRT inf at 24 h: read-out: MRT 0 → ∞
Procedure: The pharmacokinetic analyses in mice were performed according to the standard protocols of Medicilon as previously described[21] following approval by local animal experiment authorities (Shanghai, China) and in compliance with FELASA guidelines and recommendations. Three IRC mice were used per treatment group: 5 mg/kg 24 in 5% DMSO, 50% PEG400 (both Sigma-Aldrich), and 45% saline as vehicle.

kinetic solubility = type: physicochemical; details: PBS pH = 7
Procedure: Kinetic solubility, microsomal stability, and plasma stability were determined following our internal protocol (Symeres). The Caco-2 and PPB determinations were performed by Cyprotex.

WNT/β-catenin signaling [2] = experiment: cellular (HEK293) WNT/β-catenin signaling luciferase reporter assay; type: cell-based, human; details: triplicates, 24: averages of multiple independent measurements
[3] = parameters: method as in PMID 32511917; details: cited from earlier work
[4] = parameters: method as in PMID 32511917; details: cited from earlier work; remark: listed apart in the source
WNT/β-catenin signaling [5] = details: cited from earlier work
Caco-2 = details: cited from earlier work
COLO 320DM cells = details: cited from earlier work
[6] = tested on: Cerep Safety panel 44 targets; parameters: method as in PMID 32511917; details: 10 μM; cited from earlier work
[7] = parameters: method as in PMID 32511917; details: PBS pH = 7; cited from earlier work
[8] = mouse PO 5 mg/kg; cited from earlier work
A2A = details: 10 μM; cited from earlier work
[9] = parameters: method as in PMID 32511917; details: cited from earlier work; remark: listed apart in the source
[10] = Homo sapiens, HEK293, read-out: IC50 HEK293, HEK293 WNT/β-catenin signaling reporter assay
[11] = read-out: IC50 HEK293, HEK293 WNT/β-catenin signaling reporter assay

Row | SMILES | IC50 (TNKS2) [nM] | AUC(0-inf) at 24 h [1] [ng·h/mL] | AUC(0-t) at 24 h [1] [ng·h/mL] | Cmax at 24 h [1] [ng/mL] | Tmax at 24 h [1] [min] | half-life at 24 h [1] [min] | MRT inf at 24 h [1] [h] | CL [1] [L/h/kg] | Vd [1] [L/kg] | solubility kinetic (kinetic solubility) [µM] | IC50 (WNT/β-catenin signaling [2]; [10]) [nM] | IC50 (WNT/β-catenin signaling [2]; [11]) [nM] | solubility kinetic at 1 h (kinetic solubility) [µM] | further results
1 | Cc1cccc(-c2nnc([C@H]3C[C@H](NC(=O)c4cccc5nccnc45)C3)n2-c2ccccc2F)n1 [Compound 31a, N-(trans-3-(4-(2-Fluorophenyl)-5-(6-methylpyridin-2-yl)-4H-1,2,4-triazol-3-yl)cyclobutyl)quinoxaline-5-carboxamide] | 1.7 | 3400 | 3400 | 2770 | 15 | 45.6 | 1.24 | 1.47 | 1.61 | > 80 | 1.5 | – | – | –
2 | CCOc1ccc(-c2nnc([C@H]3C[C@H](NC(=O)c4ccnc5cccnc45)C3)n2-c2ccccc2F)nc1 [Compound 15a] | – | – | – | – | – | – | – | – | – | – | – | – | – | metabolic stability in mouse microsomes [3]: high metabolic instability
3 | CCOc1ccc(-c2nnc([C@H]3C[C@H](NC(=O)c4ccnc5cc(F)cnc45)C3)n2-c2ccncc2)nc1 [Compound 18b, N-(trans-3-(5-(5-Ethoxypyridin-2-yl)-4-(pyridin-4-yl)-4H-1,2,4-triazol-3-yl)cyclobutyl)-7-fluoro-1,5-naphthyridine-4-carboxamide] | 2.9 | 322 | 319 | 285 | 15 | 60 | 1.56 | 15.6 | 22.4 | > 80 | 6 | 6.4 | – | –
4 | Cc1cccc(-c2nnc([C@H]3C[C@H](NC(=O)c4cc(F)cc5nccnc45)C3)n2-c2ccccc2F)n1 [Compound 31b, N-(trans-3-(4-(2-Fluorophenyl)-5-(6-methylpyridin-2-yl)-4H-1,2,4-triazol-3-yl)cyclobutyl)-7-fluoroquinoxaline-5-carboxamide] | 1.6 | 5320 | 5310 | 5800 | 15 | 35.4 | 1.47 | 0.94 | 0.80 | – | 0.17 | 0.169 | 13 (≈ 6.47 µg/mL) | –
5 | CCOc1ccc(-c2nnc([C@H]3C[C@H](NC(=O)c4ccccn4)C3)n2-c2ccccc2F)nc1 [Compound 1] | – | – | – | – | – | – | – | – | – | – | – | – | – | Ames test [4]: nongenotoxic; IC50 (WNT/β-catenin signaling [5]; HEK293 WNT/β-catenin signaling reporter assay): 19 nM; HEK293 reporter assay pIC50 ± SEM (WNT/β-catenin signaling [5]): 19 (7.75 ± 0.067); Caco-2 A–B: Papp (Caco-2): 39.5 10^–6 cm/s; COLO 320DM cells GI25 (COLO 320DM cells): 94 nM; GI50 (COLO 320DM cells): 650 nM; microsomal stability mouse CLint ([3]; mouse): 27 μL/min/mg protein; Cerep Safety panel 44 targets (overall result) [6]: clean; kinetic solubility [7]: >80 µM; CL [8]: 2.09 L/h/kg; Cerep Safety panel inhibition of A2A (A2A): 53%; microsomal stability human CLint [9]: < 5 μL/min/mg protein
6 | CCOc1ccc(-c2nnc([C@H]3C[C@H](NC(=O)c4ccnc5cccnc45)C3)n2-c2ccc(C)s2)nc1 [Compound 22a, N-(trans-3-(5-(5-Ethoxypyridin-2-yl)-4-(5-methylthiophen-2-yl)-4H-1,2,4-triazol-3-yl)cyclobutyl)-1,5-naphthyridine-4-carboxamide] | 0.73 | 547 | 543 | 779 | 15 | 70.2 | 1.39 | 9.14 | 15.5 | – | 0.81 | – | 50 (≈ 25.6 µg/mL) | –
